Molecules are shown by their SMILES. Values joined by “and” are separate entries in the source; they are usually repeats but may differ in a detail not shown here. Equal entries are not always repeated.

One experiment addresses AKT3 (Homo sapiens, UniProt Q9Y243). The experiment is described as follows: KINOMEscan binding. The following applies: read-out: % Ctrl AKT3.
The next experiment concerns the target PIK3CG (Homo sapiens, UniProt P48736). The experiment is described as follows: KINOMEscan binding. To be noted: read-out: % Ctrl PIK3CG.
The target in the next experiment is BTK (Homo sapiens, UniProt Q06187). Put plainly: KINOMEscan binding. To be noted: read-out: % Ctrl BTK.
For a further experiment, the target named is TXK (Homo sapiens, UniProt P42681). Put plainly: KINOMEscan binding. To be noted: read-out: % Ctrl TXK.
The target of a further experiment is FYN (Homo sapiens, UniProt P06241). The experiment is described as follows: KINOMEscan binding. The following applies: read-out: % Ctrl FYN.
Experiment [1] addresses NanoLuc®-BMX fusion vector in HEK293 cells (Homo sapiens, UniProt P51813). The experiment is described as follows: NanoBRET TE intracellular kinase assay. In kind it is cell-based. The following applies: HEK293 transiently transfected with BMX; 1 h; duplicate, mean ± S.D.; read-out: intracellular target engagement IC50.
Method: Target Engagement Intracellular Kinase Assay:
In-cell target engagement was performed at the Reaction Biology Corporation (USA) using the NanoBRETTM technology. Very briefly, HEK296 cells, purchased from ATCC, were
with the reference compound Dasatinib, for 1 hour of incubation. Compounds were diluted 10 times with 3-fold dilution, starting at 1 µM. Curve fits were performed only when % NanoBret
determined using the GraphPad Prism 8 (USA).
The next experiment addresses PIK3CB (Homo sapiens, UniProt P42338). The experiment is described as follows: KINOMEscan binding. The following applies: read-out: % Ctrl PIK3CB.
In the next experiment the target is AKT1 (Homo sapiens, UniProt P31749). The experiment is described as follows: KINOMEscan binding. To be noted: read-out: % Ctrl AKT1.
The target of a further experiment is FGR (Homo sapiens, UniProt P09769). Put plainly: KINOMEscan binding. The following applies: read-out: % Ctrl FGR.
The target in another experiment is PAK1 (Homo sapiens, UniProt Q13153). The experiment is described as follows: KINOMEscan binding. The following applies: read-out: % Ctrl PAK1.
In a further experiment the test system is CAOV3. The experiment is described as follows: Multi cell line growth assay (CellTiter-Glo, 72 h). The experiment is classed as cell-based, human. The following applies: Homo sapiens, Caov-3, Ovary, ND = no growth inhibition observed.
The subject of a further experiment is Jurkat. The experiment is described as follows: Multi cell line growth assay (CellTiter-Glo, 72 h). The following applies: Homo sapiens, Jurkat, Blood, ND = no growth inhibition observed. The experiment is classed as cell-based, human.
Another experiment concerns the target T1, hBMX (Homo sapiens, UniProt P51813).
T1 construct: Crystallization, data collection, and structure determination of BMX catalytic domain in; made in house; host or cells: Sf-9 insect cells
The experiment is described as follows: Mass spectrometry of drug-conjugated hBMX. The following applies: 2.5 mM compound, room temperature, 30 min, PBS pH 7.4; MS/MS after digestion. As for the experimental part: Mass spectrometry (MS) studies confirmed the covalent binding of JS24 at cysteine 496 of BMX. The truncated hBMX was analyzed by native MS and the protein mass found was 30899 Da (Fig. 2a). The protein was then treated with 2.5 mM of JS24 at room temperature for 30 min in PBS pH 7.4 and directly analyzed by denaturing MS. The protein was fully denatured and cleaned on a reverse phase column, discarding any non-specific binding, to retain only any covalently linked compound. The mass found upon incubation with JS24 is 31 424 Da, which is 525 Da larger than the apo-form of hBMX (Fig. 2b).
Fig. 2 Mass spectrometric analysis of BMX and JS24 conjugated to BMX. (a) Native MS analysis of hBMX. The measured molecular weight is indicated. […] The measured molecular weight is indicated. […]
The BMX enzyme system (Catalog. V4512) and the ADP-GloTM kinase assay were purchased from Promega Corporation (USA). […] Then, 10 µL of kinase detection reagent was added into the wells and incubated for 30 min to produce a luminescence signal. The signal was measured using an Infinite M200 Microplate Reader (Tecan Group Ltd, Switzerland), with an integration time of 0.250s. The observed rate constants for inhibition (kobs), at different inhibitor concentrations, were determined from the slope of a semi-logarithmic plot of inhibition versus time, and re-plotted against inhibitor concentration (nM). […]

Chain of NanoLuc®-BMX fusion vector in HEK293 cells (P51813 whole entry, the tested form may be a part): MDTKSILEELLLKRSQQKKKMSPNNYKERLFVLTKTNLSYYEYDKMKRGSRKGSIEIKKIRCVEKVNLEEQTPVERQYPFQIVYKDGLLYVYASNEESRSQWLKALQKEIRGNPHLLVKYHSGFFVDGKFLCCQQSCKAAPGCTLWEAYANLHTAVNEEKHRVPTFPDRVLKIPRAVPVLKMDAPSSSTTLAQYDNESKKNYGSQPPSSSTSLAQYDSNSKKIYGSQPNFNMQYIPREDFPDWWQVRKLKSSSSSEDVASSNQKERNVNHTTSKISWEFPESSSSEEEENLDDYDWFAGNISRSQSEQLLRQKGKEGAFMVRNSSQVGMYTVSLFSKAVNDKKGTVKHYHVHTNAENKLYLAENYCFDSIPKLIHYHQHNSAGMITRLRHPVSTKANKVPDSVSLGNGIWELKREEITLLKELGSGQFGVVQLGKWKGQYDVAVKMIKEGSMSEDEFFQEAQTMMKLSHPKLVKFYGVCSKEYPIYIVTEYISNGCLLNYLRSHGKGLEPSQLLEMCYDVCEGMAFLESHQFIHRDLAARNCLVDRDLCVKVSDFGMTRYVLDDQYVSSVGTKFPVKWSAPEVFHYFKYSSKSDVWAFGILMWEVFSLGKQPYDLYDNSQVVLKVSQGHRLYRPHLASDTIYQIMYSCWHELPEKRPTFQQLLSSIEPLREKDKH
Chain of FGR (P09769 whole entry): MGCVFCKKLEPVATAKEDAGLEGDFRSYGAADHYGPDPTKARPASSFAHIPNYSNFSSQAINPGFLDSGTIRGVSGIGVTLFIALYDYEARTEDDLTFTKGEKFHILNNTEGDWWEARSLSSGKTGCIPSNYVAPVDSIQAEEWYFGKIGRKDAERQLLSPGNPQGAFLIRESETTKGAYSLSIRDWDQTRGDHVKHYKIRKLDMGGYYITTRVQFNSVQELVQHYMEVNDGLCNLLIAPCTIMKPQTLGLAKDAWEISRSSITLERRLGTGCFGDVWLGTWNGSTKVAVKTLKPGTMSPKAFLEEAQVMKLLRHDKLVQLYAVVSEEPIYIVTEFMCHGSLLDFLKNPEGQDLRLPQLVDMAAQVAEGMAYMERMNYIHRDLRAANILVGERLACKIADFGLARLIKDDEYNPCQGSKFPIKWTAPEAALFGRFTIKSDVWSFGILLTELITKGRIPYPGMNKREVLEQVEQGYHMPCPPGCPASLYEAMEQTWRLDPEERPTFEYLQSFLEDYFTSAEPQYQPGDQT
Chain of BTK (Q06187 whole entry, species assumed): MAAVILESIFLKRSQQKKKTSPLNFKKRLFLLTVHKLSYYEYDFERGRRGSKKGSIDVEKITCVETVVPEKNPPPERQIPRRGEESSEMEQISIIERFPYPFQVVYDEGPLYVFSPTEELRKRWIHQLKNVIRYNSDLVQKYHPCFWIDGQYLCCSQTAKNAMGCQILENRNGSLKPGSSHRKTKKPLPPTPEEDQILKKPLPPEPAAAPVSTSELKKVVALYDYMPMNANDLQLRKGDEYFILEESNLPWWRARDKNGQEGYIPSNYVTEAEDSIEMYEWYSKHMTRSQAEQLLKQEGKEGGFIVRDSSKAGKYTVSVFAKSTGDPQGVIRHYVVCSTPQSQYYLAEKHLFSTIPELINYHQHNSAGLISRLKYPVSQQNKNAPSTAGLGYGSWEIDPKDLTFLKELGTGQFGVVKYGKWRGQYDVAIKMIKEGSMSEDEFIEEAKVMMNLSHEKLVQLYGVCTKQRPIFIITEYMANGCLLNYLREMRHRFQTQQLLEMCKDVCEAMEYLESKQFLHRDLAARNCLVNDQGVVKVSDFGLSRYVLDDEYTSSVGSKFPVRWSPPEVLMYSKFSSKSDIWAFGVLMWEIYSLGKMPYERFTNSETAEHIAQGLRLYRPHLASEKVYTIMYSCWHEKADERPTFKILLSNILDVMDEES
Chain of AKT3 (Q9Y243 whole entry): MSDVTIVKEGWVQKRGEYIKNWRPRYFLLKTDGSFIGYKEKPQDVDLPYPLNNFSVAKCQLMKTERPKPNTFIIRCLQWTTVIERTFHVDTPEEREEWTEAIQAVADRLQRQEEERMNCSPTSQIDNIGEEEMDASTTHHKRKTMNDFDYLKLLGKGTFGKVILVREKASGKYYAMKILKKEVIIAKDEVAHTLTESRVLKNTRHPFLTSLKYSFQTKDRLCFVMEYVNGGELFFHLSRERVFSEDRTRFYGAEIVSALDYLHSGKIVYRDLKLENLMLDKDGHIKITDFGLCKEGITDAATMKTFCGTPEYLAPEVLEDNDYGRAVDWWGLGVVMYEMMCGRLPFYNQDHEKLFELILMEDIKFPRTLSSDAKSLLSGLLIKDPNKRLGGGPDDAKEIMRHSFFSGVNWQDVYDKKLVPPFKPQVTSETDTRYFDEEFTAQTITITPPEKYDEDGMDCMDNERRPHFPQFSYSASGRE
Chain of PAK1 (Q13153 whole entry): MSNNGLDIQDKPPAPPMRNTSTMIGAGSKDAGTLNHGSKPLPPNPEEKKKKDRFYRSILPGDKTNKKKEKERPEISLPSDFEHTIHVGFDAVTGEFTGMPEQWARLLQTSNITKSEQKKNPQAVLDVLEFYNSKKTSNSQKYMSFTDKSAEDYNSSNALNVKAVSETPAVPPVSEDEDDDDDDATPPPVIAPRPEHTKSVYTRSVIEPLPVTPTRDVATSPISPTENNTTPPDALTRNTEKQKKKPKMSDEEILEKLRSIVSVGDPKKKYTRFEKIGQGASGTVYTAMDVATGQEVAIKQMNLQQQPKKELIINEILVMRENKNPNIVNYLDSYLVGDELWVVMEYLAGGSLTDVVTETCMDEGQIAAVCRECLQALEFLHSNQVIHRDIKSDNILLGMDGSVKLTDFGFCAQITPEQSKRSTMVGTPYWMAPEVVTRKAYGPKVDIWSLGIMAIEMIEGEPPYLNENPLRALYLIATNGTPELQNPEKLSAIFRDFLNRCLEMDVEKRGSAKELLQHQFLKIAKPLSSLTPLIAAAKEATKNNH
Chain of FYN (P06241 whole entry, the tested form may be a part): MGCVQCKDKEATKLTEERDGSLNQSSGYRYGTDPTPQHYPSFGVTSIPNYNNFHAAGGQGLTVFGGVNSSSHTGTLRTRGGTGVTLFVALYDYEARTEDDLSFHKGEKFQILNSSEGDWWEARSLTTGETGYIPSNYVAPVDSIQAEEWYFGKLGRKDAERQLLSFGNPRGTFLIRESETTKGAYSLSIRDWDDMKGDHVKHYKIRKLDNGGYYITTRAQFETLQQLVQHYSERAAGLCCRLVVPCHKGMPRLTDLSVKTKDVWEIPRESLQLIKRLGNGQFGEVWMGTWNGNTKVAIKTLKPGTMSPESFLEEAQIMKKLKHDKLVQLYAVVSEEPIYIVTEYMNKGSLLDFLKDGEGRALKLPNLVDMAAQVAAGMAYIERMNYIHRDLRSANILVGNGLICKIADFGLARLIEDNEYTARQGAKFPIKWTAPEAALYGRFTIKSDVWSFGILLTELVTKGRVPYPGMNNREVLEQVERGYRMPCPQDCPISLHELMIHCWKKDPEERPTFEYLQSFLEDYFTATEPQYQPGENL
Chain of PIK3CG (P48736 whole entry): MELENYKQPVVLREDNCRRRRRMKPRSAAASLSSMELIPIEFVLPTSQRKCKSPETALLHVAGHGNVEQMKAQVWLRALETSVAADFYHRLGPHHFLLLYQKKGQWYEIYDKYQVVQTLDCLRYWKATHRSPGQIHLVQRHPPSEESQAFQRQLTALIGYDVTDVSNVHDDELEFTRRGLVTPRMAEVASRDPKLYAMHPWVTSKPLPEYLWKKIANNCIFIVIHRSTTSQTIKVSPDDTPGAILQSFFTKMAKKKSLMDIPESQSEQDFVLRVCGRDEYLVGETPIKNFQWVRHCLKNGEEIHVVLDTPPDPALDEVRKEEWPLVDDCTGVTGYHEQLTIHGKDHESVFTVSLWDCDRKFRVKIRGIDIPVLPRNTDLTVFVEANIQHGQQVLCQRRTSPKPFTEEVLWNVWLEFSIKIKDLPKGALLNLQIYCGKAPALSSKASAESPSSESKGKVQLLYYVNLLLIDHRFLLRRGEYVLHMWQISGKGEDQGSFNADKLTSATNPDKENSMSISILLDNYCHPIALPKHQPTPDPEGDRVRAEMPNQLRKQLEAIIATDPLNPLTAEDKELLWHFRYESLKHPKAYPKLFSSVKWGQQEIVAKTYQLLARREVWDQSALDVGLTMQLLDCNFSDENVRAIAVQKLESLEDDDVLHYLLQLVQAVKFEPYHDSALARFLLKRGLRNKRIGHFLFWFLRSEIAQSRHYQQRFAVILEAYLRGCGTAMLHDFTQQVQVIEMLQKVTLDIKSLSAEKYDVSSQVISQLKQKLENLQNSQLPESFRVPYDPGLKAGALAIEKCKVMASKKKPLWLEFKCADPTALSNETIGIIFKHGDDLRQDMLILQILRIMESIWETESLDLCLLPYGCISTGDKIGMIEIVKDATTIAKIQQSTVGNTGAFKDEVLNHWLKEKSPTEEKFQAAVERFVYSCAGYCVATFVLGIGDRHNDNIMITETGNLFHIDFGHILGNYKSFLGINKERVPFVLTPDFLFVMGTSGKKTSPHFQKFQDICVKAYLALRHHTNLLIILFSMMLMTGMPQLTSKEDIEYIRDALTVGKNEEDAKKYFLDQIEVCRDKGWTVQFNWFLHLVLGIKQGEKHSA
Chain of AKT1 (P31749 whole entry): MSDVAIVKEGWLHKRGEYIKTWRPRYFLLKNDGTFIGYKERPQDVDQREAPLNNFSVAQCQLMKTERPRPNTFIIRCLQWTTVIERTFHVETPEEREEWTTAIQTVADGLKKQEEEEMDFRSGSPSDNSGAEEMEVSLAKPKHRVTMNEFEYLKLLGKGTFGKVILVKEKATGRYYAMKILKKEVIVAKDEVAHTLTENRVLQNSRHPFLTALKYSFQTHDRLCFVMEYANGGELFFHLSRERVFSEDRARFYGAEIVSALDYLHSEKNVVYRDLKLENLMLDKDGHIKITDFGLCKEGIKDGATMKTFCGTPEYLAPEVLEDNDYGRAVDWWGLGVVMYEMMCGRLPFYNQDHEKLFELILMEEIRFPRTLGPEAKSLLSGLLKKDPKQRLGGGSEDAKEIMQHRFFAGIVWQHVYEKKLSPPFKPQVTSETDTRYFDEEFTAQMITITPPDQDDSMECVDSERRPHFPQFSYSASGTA
Method for AKT1: (§1) Therefore, we included the whole TEC, EGFR and JAK family in our screening, and the Src family and Lkb1, which also have a cysteine within the same sequence alignment. We also included kinases involved in upstream (Src, FAK, PI3K, mTOR, PDK1) and downstream (Akt, PAK1, TAM) regulation of BMX signaling pathway and non-receptor tyrosine protein kinase Abl.
(§2) Kinome selectivity was performed with DiscoverX KINOMEscan™ technology.
Method for AKT3: as §1, §2
Method for BTK: (§3) Therefore, we included the whole TEC, EGFR and JAK family in our screening, and the Src family and Lkb1, which also have a cysteine within the same sequence alignment.
as §2
Method for FGR: as §3, §2
Method for FYN: as §1, §2
Method for PAK1: as §1, §2
Method for PIK3CB: as §1, §2
Method for PIK3CG: as §1, §2
Method for TXK: as §3, §2

Regarding `C=CC(=O)Nc1cc(C)cc(-n2c(=O)ccc3cnc4cc(-c5ccc(NS(C)(=O)=O)cc5)ccc4c32)c1` [JS25], the remaining binding at 1 µM at AKT3 was determined as 99%; on PIK3CG, 64%; at BTK, 0%; on TXK, 3.4%; on FYN it was 99%; at PIK3CB, 89%. Further, the remaining binding at 1 µM at AKT1 came out at 100%; at FGR, 93%; at PAK1, 100%. Moreover, in experiment [1], the IC50 was 44.8 nM and 45 nM.
In the case of `C=CC(=O)Nc1cc(-n2c(=O)ccc3cnc4cc(-c5ccc(NS(C)(=O)=O)cc5)ccc4c32)ccc1C` [JS24], the GI50 in the experiment on CAOV3 came out at 8.56 µM; in the experiment with Jurkat it was 5.48 µM. In addition, the “site of covalent modification of hBMX” value at hBMX is listed as “covalent modification at cysteine residue 496”.

The values are drawn from publication PMC8341910, “Structural and biophysical insights into the mode of covalent binding of rationally designed potent BMX inhibitors” (RSC Chemical Biology, 2020).
